25 compounds from patent publication US9540391B2, “Isomannide derivatives as inhibitors of soluble epoxide hydrolase” (SANOFI, priority 2013, dated 2017) can be followed below.

Molecules are shown by their SMILES. Counter-ions that a name gives are not always drawn.

As a reminder, the IC50 is the point on the concentration scale where inhibition reaches its midpoint.

The target of this experiment is T1, recombinant sEH (Homo sapiens, UniProt P34913).
T1 construct: made in house; host or cells: Sf9 insect cells
T1 sequence (P34913 1-555): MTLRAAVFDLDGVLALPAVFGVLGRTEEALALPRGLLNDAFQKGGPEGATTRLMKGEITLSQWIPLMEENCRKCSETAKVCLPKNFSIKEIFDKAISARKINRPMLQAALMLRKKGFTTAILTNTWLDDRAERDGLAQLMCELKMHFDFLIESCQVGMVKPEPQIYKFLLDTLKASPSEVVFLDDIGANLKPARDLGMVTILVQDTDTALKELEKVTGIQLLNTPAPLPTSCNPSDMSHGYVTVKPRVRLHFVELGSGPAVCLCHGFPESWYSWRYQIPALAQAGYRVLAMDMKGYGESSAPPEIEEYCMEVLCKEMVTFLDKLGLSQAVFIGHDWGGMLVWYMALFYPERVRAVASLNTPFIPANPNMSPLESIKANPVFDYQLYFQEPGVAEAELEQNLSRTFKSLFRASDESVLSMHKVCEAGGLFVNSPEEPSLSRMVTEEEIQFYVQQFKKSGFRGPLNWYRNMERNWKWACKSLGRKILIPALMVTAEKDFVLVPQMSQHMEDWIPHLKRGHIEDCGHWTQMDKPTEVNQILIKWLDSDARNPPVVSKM
Description: biochemical screening assay for inhibition of soluble epoxide hydrolase (fluorometric, Phome substrate). Here is the method: The ability of the compounds of the formula I to inhibit soluble epoxide hydrolase can be determined as follows:
Compounds were tested in a biochemical screening assay using recombinant sEH purified from Sf9 insect cells and an artificial substrate, (3-phenyl-oxiranyl)-acetic acid cyano-(6-methoxy-naphtalen-2-yl)-methyl ester, Phome. The biochemical assay was performed in analogy to a fluorometric method described in the literature (P. D. Jones et al., Anal. Biochem. 2005, 343, 66-75). The assay principle bases on the sEH-catalyzed hydrolysis of an artificial α-cyano-ester substrate. 0-deacetylation liberates a cyanohydrin intermediate that rapidly decomposes to the highly fluorescent 6-methoxy-2-naphtaldehyde. To discriminate sample autofluorescence, the assay was carried out as a kinetic measurement with two time points. The first measurement is performed immediately before addition of the substrate and the second measurement is done after completion of the assay. The assay format is either in 96- or in 384-well format. Details of the assay using a 96-well plate format are described below. 40 μL recombinant sEH enzyme and 5 μL test compound are pre-incubated for 15 minutes at 30° C. Following pre-incubation, the reaction is started by addition of 5 μL Phome. The assay mixture containing 2 nM final sEH concentration, test compound ranging in a concentration from 0.0001-10 μM and 5 μM Phome is incubated for 60 minutes at 30° C.
Fluorescence can be measured with any suitable detector for instance a TECAN Safire or Tecan Ultra at […]. % inhibition of recombinant sEH activity is used for calculation of corresponding IC50 values as illustrated and described in the examples.
The NCBI gene bank reference sequence with the accession number NM_001979 for EPHX2/sEH was applied for recombinant protein production:
The following commercially available materials have been used: • Incubation reagent: 25 mM Hepes (Sigma-Aldrich, Cat. No H-3375), 0.01% bovine albumin (Sigma-Aldrich Cat. No PA9205) • Substrate: 3-Phenyl-oxiranyl)-acetic acid cyano-(6-methoxy-naphtalen-2-yl)-methyl ester, Phome (Biozol Cat. No 10003134) • Microtiter plates: 96-well plates (Greiner Cat. No 655180; Costar Cat. No 3915)
On to `Cc1ncccc1O[C@H]1CO[C@H]2[C@@H]1OC[C@@H]2NC(=O)NC1CCC(=O)N(C)C1` (stereo partly drawn) [Example 245, 1-(1-Methyl-6-oxo-piperidin-3-yl)-3-[(3S,3aR,6S,6aS)-6-(2-methyl-pyridin-3-yloxy)-hexahydro-furo[3,2-b]furan-3-yl]-urea], for which the IC50 was 825 nM.

As to `COc1cc(NC(=O)NC2COC3C(C=Cc4ccccc4)COC23)cc(OC)c1` [Example 321, 1-(3,5-Dimethoxy-phenyl)-3-[(3S,3aR,6R)-6-((S)-(Z)-styryl)-hexa-hydro-furo[3,2-b]furan-3-yl]-urea], the half-maximal inhibitory concentration (IC50) worked out at 66 nM.

With `O=C(NC1CCCCC1)N[C@H]1CO[C@H]2[C@@H]1OC[C@@H]2Oc1ccc2cc(Br)ccc2c1` [Example 99, 1-[(3S,3aR,6S,6aS)-6-(6-Bromo-naphthalen-2-yloxy)-hexahydro-furo-[3,2-b]furan-3-yl]-3-cyclohexyl-urea], the 50% inhibitory concentration (IC50) turned out to be 12 nM.

In the case of `Cc1cccc(CNC(=O)NC2COC3C(CCc4ccsc4)COC23)c1` [Example 365, 1-(3-Methyl-benzyl)-3-[(3S,3aR,6R)-6-((S)-2-thiophen-3-yl-ethyl)-hexa-hydro-furo[3,2-b]furan-3-yl]-urea], the IC50 is 145 nM.

As for `O=C(N[C@H]1CO[C@H]2[C@@H]1OC[C@@H]2Oc1ccc(F)cc1)N[C@H]1CCC[C@@H]1OCc1ccccc1` [Example 153, 1-((1S,2S)-2-Benzyloxy-cyclopentyl)-3-[(3S,3aR,6S,6aS)-6-(4-fluoro-phenoxy)-hexahydro-furo[3,2-b]furan-3-yl]-urea], the IC50 came out at 62 nM.

With `Cc1ncccc1O[C@H]1CO[C@H]2[C@@H]1OC[C@@H]2NC(=O)NC1CCCC(C)C1` (stereo partly drawn) [Example 258, 1-(3-Methyl-cyclohexyl)-3-[(3S,3aR,6S,6aS)-6-(2-methyl-pyridin-3-yloxy)-hexahydro-furo[3,2-b]furan-3-yl]-urea], the IC50 came out at 2 nM.

Turning to `Cc1ncccc1O[C@H]1CO[C@H]2[C@@H]1OC[C@@H]2NC(=O)NC1(c2cccnc2)CC1` [Example 238, 1-[(3S,3aR,6S,6aS)-6-(2-Methyl-pyridin-3-yloxy)-hexahydro-furo[3,2-b]furan-3-yl]-3-(1-pyridin-3-yl-cyclopropyl)-urea], the 50% inhibitory concentration (IC50) is 2060 nM.

On to `Cc1cc(Cl)ncc1O[C@H]1CO[C@H]2[C@@H]1OC[C@@H]2NC(=O)NC1CCCCC1` [Example 66, 1-[(3S,3aR,6S,6aS)-6-(6-Chloro-4-methyl-pyridin-3-yloxy)-hexahydro-furo[3,2-b]furan-3-yl]-3-cyclohexyl-urea], for which the IC50 was 2 nM.

For `O=C(NC1CCCCC1)N[C@H]1CO[C@H]2[C@@H]1OC[C@@H]2Oc1cccc(N2CCCCC2)c1` [Example 75, 1-cyclohexyl-3-[(3S,3aR,6S,6aS)-6-(3-piperidin-1-yl-phenoxy)-hexahydro-furo[3,2-b]furan-3-yl]-urea], the IC50 is 2 nM.

On to `CC(=O)c1cccc(O[C@H]2CO[C@H]3[C@@H]2OC[C@@H]3NC(=O)NC2CCCCC2)c1` [Example 106, 1-[(3S,3aR,6S,6aS)-6-(3-Acetyl-phenoxy)-hexahydro-furo[3,2-b]furan-3-yl]-3-cyclohexyl-urea], for which the IC50 came to 3 nM.

As for `O=C(NCc1ccc(F)cc1)NC1COC2C(CCc3ccccc3)COC12` [Example 356, 1-(4-Fluoro-benzyl)-3-[(3S,3aR,6R)-6-((S)-phenethyl)-hexahydro-furo[3,2-b]furan-3-yl]-urea], the IC50 turned out to be 140 nM.

For `O=C(NC1CCCCC1)N[C@H]1CO[C@H]2[C@@H]1OC[C@@H]2SCC(F)(F)F` [Example 45, 1-Cyclohexyl-3-[(3S,3aR,6S,6aS)-6-(2,2,2-trifluoro-ethylsulfanyl)-hexa-hydro-furo[3,2-b]furan-3-yl]-urea], the concentration for half-maximal inhibition (IC50) is 25 nM.

`Cc1ncccc1O[C@H]1CO[C@H]2[C@@H]1OC[C@@H]2NC(=O)NC1CCC2(CC1)OCCO2` [Example 266, 1-(1,4-Dioxa-spiro[4.5]dec-8-yl)-3-[(3S,3aR,6S,6aS)-6-(2-methyl-pyridin-3-yloxy)-hexahydro-furo[3,2-b]furan-3-yl]-urea]: the IC50 amounted to 16 nM.

For the compound `O=C(NC1CCCCC1)N[C@H]1CO[C@H]2[C@@H]1OC[C@@H]2Oc1cc(Cl)cc(Cl)c1` [Example 31, 1-Cyclohexyl-3-[(3S,3aR,6S,6aS)-6-(3,5-dichloro-phenoxy)-hexahydro-furo[3,2-b]furan-3-yl]-urea], the IC50 came out at 3 nM.

With `CCOC1COCCC1NC(=O)N[C@H]1CO[C@H]2[C@@H]1OC[C@@H]2Oc1cccnc1C` (stereo partly drawn) [Example 79, 1-(3-ethoxy-tetrahydro-pyran-4-yl)-3-[(3S,3aR,6S,6aS)-6-(2-methyl-pyridin-3-yloxy)-hexahydro-furo[3,2-b]furan-3-yl]-urea; hydrochloride], the IC50 turned out to be 987 nM.

Consider `O=C(Nc1ccc(OCc2ccccc2)cc1)NC1COC2C(C#Cc3ccccc3)COC12` [Example 287, 1-(4-Benzyloxy-phenyl)-3-[(3S,3aR,6R)-6-((S)-phenylethynyl)-hexahydro-furo[3,2-b]furan-3-yl]-urea], for which the IC50 was 82 nM.

For `O=C(Nc1cccc(C(F)(F)F)c1)N[C@H]1CO[C@H]2[C@@H]1OC[C@@H]2/C=C\c1ccsc1` [Example 346, 1-[(3S,3aR,6S,6aR)-6-((Z)-2-Thiophen-3-yl-vinyl)-hexahydro-furo[3,2-b]furan-3-yl]-3-(3-trifluoromethyl-phenyl)-urea], the IC50 came to 62 nM.

Consider `O=C(NC1CCCCC1)N[C@H]1CO[C@H]2[C@@H]1OC[C@@H]2Oc1cccc(N2CCNCC2)c1` [Example 142, 1-Cyclohexyl-3-[(3S,3aR,6S,6aS)-6-(3-piperazin-1-yl-phenoxy)-hexahydro-furo[3,2-b]furan-3-yl]-urea; trifluoroacetate], for which the IC50 was 30 nM.

For the compound `C[C@@H](NC(=O)N[C@H]1CO[C@H]2[C@@H]1OC[C@@H]2Oc1ccc(F)cc1)c1ccc(Cl)cc1` [Example 166, 1-[(R)-1-(4-Chloro-phenyl)-ethyl]-3-[(3S,3aR,6S,6aS)-6-(4-fluoro-phenoxy)-hexahydro-furo[3,2-b]furan-3-yl]-urea], the IC50 worked out at 18 nM.

On to `Cc1cccc(CNC(=O)N[C@H]2CO[C@@H]3[C@@H]2OC[C@H]3/C=C\c2ccccc2)c1` [Example 327, 1-(3-Methyl-benzyl)-3-[(3S,3aR,6R)-6-((S)-(Z)-styryl)-hexahydro-furo[3,2-b]furan-3-yl]-urea], for which the IC50 is 98 nM.

For `Cc1ncccc1O[C@H]1CO[C@H]2[C@@H]1OC[C@@H]2NC(=O)NCc1c(C)n[nH]c1C` [Example 222, 1-(3,5-Dimethyl-1H-pyrazol-4-ylmethyl)-3-[(3S,3aR,6S,6aS)-6-(2-methyl-pyridin-3-yloxy)-hexahydro-furo[3,2-b]furan-3-yl]-urea], the IC50 worked out at 54 nM.

Turning to `Cc1ncccc1O[C@H]1CO[C@H]2[C@@H]1OC[C@@H]2NC(=O)NCCCn1nc(C(F)(F)F)cc1C` [Example 243, 1-[(3S,3aR,6S,6aS)-6-(2-Methyl-pyridin-3-yloxy)-hexahydro-furo[3,2-b]furan-3-yl]-3-[3-(5-methyl-3-tri-fluoromethyl-pyrazol-1-yl)-propyl]-urea], the half-maximal inhibitory concentration (IC50) came out at 41 nM.

For the compound `Cc1ncccc1O[C@H]1CO[C@H]2[C@@H]1OC[C@@H]2NC(=O)NC(C)(C)c1ccc(F)cc1` [Example 204, 1-[1-(4-Fluoro-phenyl)-1-methyl-ethyl]-3-[(3S,3aR,6S,6aS)-6-(2-methyl-pyridin-3-yloxy)-hexahydro-furo[3,2-b]furan-3-yl]-urea], the concentration for half-maximal inhibition (IC50) came to 734 nM.

As to `Cc1ncccc1O[C@H]1CO[C@H]2[C@@H]1OC[C@@H]2NC(=O)NCC1(O)CCCCC1` [Example 182, 1-(1-Hydroxy-cyclohexylmethyl)-3-[(3S,3aR,6S,6aS)-6-(2-methyl-pyridin-3-yloxy)-hexahydro-furo[3,2-b]furan-3-yl]-urea], the 50% inhibitory concentration (IC50) was found to be 96 nM.

Take `Cc1ncccc1O[C@H]1CO[C@H]2[C@@H]1OC[C@@H]2NC(=O)NC(C)(C)C(F)(F)F` [Example 232, 1-[(3S,3aR,6S,6aS)-6-(2-Methyl-pyridin-3-yloxy)-hexahydro-furo[3,2-b]furan-3-yl]-3-(2,2,2-trifluoro-1,1-dimethyl-ethyl)-urea]: the IC50 stood at 268 nM.
